Assay results published in patent US20260256792A1, “TREATMENT OF CHRONIC SPONTANEOUS URTICARIA BY ADMINISTERING (R)-2-[3-[4-AMINO-3-(2-FLUORO-4-PHENOXY-PHENYL)PYRAZOLO[3,4-D]PYRIMIDIN-1-YL]PIPERIDINE-1-CARBONYL]-4-METHYL-4-[4-(OXETAN-3-YL)PIPERAZIN-1-YL]PENT-2-ENENITRILE” (priority 2023, published 2026).

System: moderate-to-severe chronic spontaneous urticaria (CSU)
Assay: Phase 2 CSU study: urticaria activity score over 7 days (UAS7)
Type: in vivo, human
Conditions: Omalizumab-Naïve
Source text: The study comprises a 12 week, randomized, double-blind, placebo-controlled, multi-center, dose-ranging efficacy and safety phase, followed by a 40 week open label extension (OLE) phase (see FIG. 1). The study consists of three phases and an optional OLE phase. […] Clinically, CSU is characterized by the spontaneous and recurrent appearance of pruritic hives. The proposed primary endpoints were the UAS7 at Week 12 in EU and EU reference countries and the ISS7 in the US. Regardless of where a participant was from, all assessments were the same. The UAS7 score is a composite score containing both the HSS7 and the ISS7. This allowed a global assessment of the two key components of urticaria: hives and itch. […] The UAS is a validated PRO measure. […] The daily UAS scores range from 0 to 6 point/day. […] Patients were to complete the UAS using the e-diary. […] The following secondary endpoints were to be analyzed using the same approach as for the primary endpoint: • Change from baseline in UAS7 at Week 4 • Change from baseline in UAS7 at Week 12 (for US and US reference countries) • Change from baseline in ISS7 at Week 12 (except US and US reference countries) • Change from baseline in HSS7 at Week 12 The following responder secondary endpoints were to be analyzed using the Cochran-Mantel-Haenszel test adjusted by region: • Proportion of participants with UAS7<6 at Week 12 • Proportion of participants with UAS7=0 at Week 12 Participants who received selected prohibited medications and/or rescue medications were to be considered as non-responders for time points after the medication usage. For other participants, all available data including those collected during the off-treatment period were to be used to determine the responder/non-responder status. Missing data were to be considered as non-responders.

[1] = Ethnicity Non-Hispanic, 400 mg TID
[2] = History of angioedema No, 400 mg BID
[3] = History of angioedema No, 400 mg QPM
[4] = History of angioedema No, 400 mg TID
[5] = History of angioedema Yes, 400 mg BID
[6] = History of angioedema Yes, 400 mg QPM
[7] = History of angioedema Yes, 400 mg TID
[8] = Race All the Others, 400 mg BID
[9] = Race All the Others, 400 mg QPM
[10] = Race All the Others, 400 mg TID
[11] = Region Eastern Europe, 400 mg BID
[12] = Region Eastern Europe, 400 mg QPM
[13] = Region Eastern Europe, 400 mg TID
[14] = Region Latin America, 400 mg BID
[15] = Region Latin America, 400 mg QPM

CC(C)(C=C(C#N)C(=O)N1CCC[C@@H](n2nc(-c3ccc(Oc4ccccc4)cc3F)c3c(N)ncnc32)C1)N1CCN(C2COC2)CC1 [rilzabrutinib, (R)-2-[3-[4-amino-3-(2-fluoro-4-phenoxy-phenyl)pyrazolo[3,4-d]pyrimidin-1-yl]piperidine-1-carbonyl]-4-methyl-4-[4-(oxetan-3-yl)piperazin-1-yl]pent-2-enenitrile]
Change from Baseline in UAS7 at Week 12: Mean (SD) (Ethnicity Non-Hispanic, 400 mg QPM): −10.78 (9.25)
Change from Baseline in UAS7 at Week 12: LS Mean (SE) [1]: −19.24 (2.48)
Change from Baseline in UAS7 at Week 12: Mean (SD) [1]: −22.02 (10.28)
Change from Baseline in UAS7 at Week 12: Mean (SD) (Gender Female, 400 mg BID): −13.23 (11.66)
Change from Baseline in UAS7 at Week 12: Mean (SD) (Gender Female, 400 mg QPM): −10.93 (9.28)
Change from Baseline in UAS7 at Week 12: Mean (SD) (Gender Female, 400 mg TID): −20.41 (11.94)
Change from Baseline in UAS7 at Week 12: LS Mean (SE) (Gender Male, 400 mg BID): −16.67 (3.54)
Change from Baseline in UAS7 at Week 12: Mean (SD) (Gender Male, 400 mg BID): −16.87 (13.20)
Change from Baseline in UAS7 at Week 12: LS Mean (SE) (Gender Male, 400 mg QPM): −8.84 (4.15)
Change from Baseline in UAS7 at Week 12: Mean (SD) (Gender Male, 400 mg QPM): −9.58 (10.13)
Change from Baseline in UAS7 at Week 12: Mean (SD) (Gender Male, 400 mg TID): −12.72 (5.65)
Change from Baseline in UAS7 at Week 12: LS Mean (SE) [2]: −15.01 (2.39)
Change from Baseline in UAS7 at Week 12: LS Mean Diff vs. placebo (95% CI) [2]: −5.13 (−12.18, 1.92)
Change from Baseline in UAS7 at Week 12: Mean (SD) [2]: −17.10 (12.56)
Change from Baseline in UAS7 at Week 12: LS Mean (SE) [3]: −7.72 (2.58)
Change from Baseline in UAS7 at Week 12: LS Mean Diff vs. placebo (95% CI) [3]: 2.16 (−5.19, 9.52)
Change from Baseline in UAS7 at Week 12: Mean (SD) [3]: −9.12 (7.74)
Change from Baseline in UAS7 at Week 12: LS Mean (SE) [4]: −17.97 (2.40)
Change from Baseline in UAS7 at Week 12: LS Mean Diff vs. placebo (95% CI) [4]: −8.09 (−15.14, −1.03)
Change from Baseline in UAS7 at Week 12: Mean (SD) [4]: −20.20 (12.00)
Change from Baseline in UAS7 at Week 12: LS Mean (SE) [5]: −11.58 (3.69)
Change from Baseline in UAS7 at Week 12: LS Mean Diff vs. placebo (95% CI) [5]: −1.91 (−11.17, 7.35)
Change from Baseline in UAS7 at Week 12: Mean (SD) [5]: −8.60 (9.01)
Change from Baseline in UAS7 at Week 12: LS Mean (SE) [6]: −11.20 (2.97)
Change from Baseline in UAS7 at Week 12: LS Mean Diff vs. placebo (95% CI) [6]: −1.53 (−9.72, 6.65)
Change from Baseline in UAS7 at Week 12: Mean (SD) [6]: −13.08 (11.63)
Change from Baseline in UAS7 at Week 12: LS Mean (SE) [7]: −15.33 (3.68)
Change from Baseline in UAS7 at Week 12: LS Mean Diff vs. placebo (95% CI) [7]: −5.66 (−14.82, 3.50)
Change from Baseline in UAS7 at Week 12: Mean (SD) [7]: −16.58 (10.23)
Change from Baseline in UAS7 at Week 12: LS Mean (SE) [8]: −11.33 (3.66)
Change from Baseline in UAS7 at Week 12: LS Mean Diff vs. placebo (95% CI) [8]: −4.82 (−14.87, 5.24)
Change from Baseline in UAS7 at Week 12: Mean (SD) [8]: −11.25 (10.32)
Change from Baseline in UAS7 at Week 12: LS Mean (SE) [9]: −8.43 (3.32)
Change from Baseline in UAS7 at Week 12: LS Mean Diff vs. placebo (95% CI) [9]: −1.92 (−11.55, 7.72)
Change from Baseline in UAS7 at Week 12: Mean (SD) [9]: −9.59 (9.91)
Change from Baseline in UAS7 at Week 12: LS Mean (SE) [10]: −14.94 (3.44)
Change from Baseline in UAS7 at Week 12: LS Mean Diff vs. placebo (95% CI) [10]: 8.43 (−18.08, 1.23)
Change from Baseline in UAS7 at Week 12: Mean (SD) [10]: −14.86 (9.62)
Change from Baseline in UAS7 at Week 12: LS Mean (SE) (Race White, 400 mg BID): −15.38 (2.37)
Change from Baseline in UAS7 at Week 12: LS Mean Diff vs. placebo (95% CI) (Race White, 400 mg BID): −4.73 (−11.30, 1.84)
Change from Baseline in UAS7 at Week 12: Mean (SD) (Race White, 400 mg BID): −15.92 (12.79)
Change from Baseline in UAS7 at Week 12: LS Mean (SE) (Race White, 400 mg QPM): −9.37 (2.37)
Change from Baseline in UAS7 at Week 12: LS Mean Diff vs. placebo (95% CI) (Race White, 400 mg QPM): 1.28 (−5.33, 7.88)
Change from Baseline in UAS7 at Week 12: LS Mean (SE) (Race White, 400 mg TID): −17.97 (2.44)
Change from Baseline in UAS7 at Week 12: LS Mean Diff vs. placebo (95% CI) (Race White, 400 mg TID): −7.33 (−13.95, −0.70)
Change from Baseline in UAS7 at Week 12: Mean (SD) (Race White, 400 mg TID): −20.70 (11.84)
Change from Baseline in UAS7 at Week 12: LS Mean (SE) (Region Asia, 400 mg BID): −11.32 (3.76)
Change from Baseline in UAS7 at Week 12: LS Mean Diff vs. placebo (95% CI) (Region Asia, 400 mg BID): −4.86 (−15.18, 5.46)
Change from Baseline in UAS7 at Week 12: Mean (SD) (Region Asia, 400 mg BID): −11.25 (10.32)
Change from Baseline in UAS7 at Week 12: LS Mean (SE) (Region Asia, 400 mg QPM): −9.00 (3.50)
Change from Baseline in UAS7 at Week 12: Mean (SD) (Region Asia, 400 mg QPM): −9.59 (9.91)
Change from Baseline in UAS7 at Week 12: LS Mean (SE) (Region Asia, 400 mg TID): −14.25 (3.99)
Change from Baseline in UAS7 at Week 12: LS Mean Diff vs. placebo (95% CI) (Region Asia, 400 mg TID): −7.78 (−18.32, 2.76)
Change from Baseline in UAS7 at Week 12: LS Mean (SE) [11]: −6.34 (10.64)
Change from Baseline in UAS7 at Week 12: LS Mean Diff vs. placebo (95% CI) [11]: 13.37 (−19.79, 46.54)
Change from Baseline in UAS7 at Week 12: Mean (SD) [11]: −20.14 (18.13)
Change from Baseline in UAS7 at Week 12: LS Mean (SE) [12]: −5.35 (5.65)
Change from Baseline in UAS7 at Week 12: LS Mean Diff vs. placebo (95% CI) [12]: 14.37 (−6.40, 35.15)
Change from Baseline in UAS7 at Week 12: Mean (SD) [12]: −5.79 (5.45)
Change from Baseline in UAS7 at Week 12: LS Mean (SE) [13]: −25.97 (6.17)
Change from Baseline in UAS7 at Week 12: LS Mean Diff vs. placebo (95% CI) [13]: −6.26 (−24.55, 12.03)
Change from Baseline in UAS7 at Week 12: Mean (SD) [13]: −21.88 (11.40)
Change from Baseline in UAS7 at Week 12: LS Mean (SE) [14]: −9.26 (3.71)
Change from Baseline in UAS7 at Week 12: LS Mean Diff vs. placebo (95% CI) [14]: 2.62 (−7.19, 12.43)
Change from Baseline in UAS7 at Week 12: Mean (SD) [14]: −10.23 (11.81)
Change from Baseline in UAS7 at Week 12: LS Mean (SE) [15]: −10.74 (3.14)
Change from Baseline in UAS7 at Week 12: LS Mean Diff vs. placebo (95% CI) [15]: 1.14 (−7.86, 10.15)
